# Laboratory results taken from patent publication US10973801B2, “Capsid assembly modulator dosing regimen” (Janssen Sciences Ireland Unlimited Company, priority 2018, dated 2021).
# Read-outs that look alike come from different tables or passages of the source.
# Legend:
# [1] = Part 1: tolerability of Compound A in healthy subjects (sessions 1-7); format: in vivo, human; conditions: single doses up to 600 mg, multiple doses 150 mg for two days then 100 mg once a day for 10 days
# [2] = Pharmacokinetics of Compound A in chronic HBV patients, 28 day treatment; format: in vivo, human
# Text: In part 2 of this study (FIG. 1, sessions 8-9), the objective was to evaluate the safety, PK, and antiviral activity of Compound A in treatment naïve, chronic hepatitis B patients over a 28-day treatment period. The patient criteria were: • HBeAg-positive or negative • Plasma HBV DNA>2.0 log 10 IU/mL • ALT/AST<2.5×ULN • METAVIR stage<F3. 1.1 Patient Baseline Characteristics
# The exposure (Cmax, AUC) increased in a dose-dependent manner with time-linear PK. The pharmacokinetics of Compound A were not markedly different between healthy volunteers and patients. Mean Compound A exposures in patients with CHB could be predicted from data in healthy volunteers. Mean (±SD) exposure in the 75 mg arm was within 90% prediction interval. […] Apparent clearance was low and similar in the two dosing groups (1 and 0.9 L/h at 25 mg and 75 mg, respectively).
# [3] = tested on: HBV RNA; assay: HBV RNA in treatment naïve chronic hepatitis B patients; format: in vivo, hepatitis B virus; conditions: N 8
# Procedure: In part 2 of this study (FIG. 1, sessions 8-9), the objective was to evaluate the safety, PK, and antiviral activity of Compound A in treatment naïve, chronic hepatitis B patients over a 28-day treatment period. The patient criteria were: • HBeAg-positive or negative • Plasma HBV DNA>2.0 log 10 IU/mL • ALT/AST<2.5×ULN • METAVIR stage<F3. 1.1 Patient Baseline Characteristics HBV DNA was assessed for each patient weekly during this study (see FIG. 3). A mean reduction in plasma HBV DNA levels of 2.16 (±0.49 SD) log10 IU/mL (25 mg Compound A) and 2.89 (±0.48 SD) log10 IU/mL (75 mg Compound A) from baseline was observed after 28 days. Three patients dosed with 75 mg QD achieved HBV DNA below the level of quantification of the HBV DNA assay while none in the 25 mg Compound A group achieved this. A more pronounced and consistent decline in HBV DNA was observed across patients in the 75 mg group compared with the 25 mg group.
# [4] = Safety and tolerability of single ascending doses in healthy Japanese volunteers; format: in vivo, human
# Procedure: A double-blind, placebo-controlled study was done to assess the safety, tolerability, and pharmacokinetics (PK) of Compound A. Thirty-two healthy adult Japanese volunteers were randomized into four cohorts. The volunteers were randomized 3:1 to receive a single dose of Compound A or placebo in a fasted state (see FIG. 4). The safety, tolerability and PK plasma profiles of Compound A were assessed after each dose. Full plasma PK profiles were determined up to 28 days after each single dose of Compound A. Urinary elimination was assessed in Cohort C (see FIG. 4) for 7 day. […] The treatment emergent adverse events (TEAEs) reported reported were hiccups, upper respiratory tract infection, nasal congestion, and cough. […] No significant laboratory abnormalities were discovered, most laboratory abnormalities were Grade 1.
# [5] = Pharmacokinetics of single ascending doses in healthy Japanese volunteers; format: in vivo, human; conditions: for Mean CL/F (SD) / Cmax / Vd/F / half-life / Tmax: fasted (n = 6); for Cmax / Vd/F / half-life / Tmax: human, plasma, oral; for Cmax: read-out: Mean Cmax (SD); for Vd/F: read-out: Mean Vd/F (SD); for half-life: read-out: Mean t1/2 term (SD) (converted); for Tmax: read-out: Median tmax
# Procedure: A double-blind, placebo-controlled study was done to assess the safety, tolerability, and pharmacokinetics (PK) of Compound A. Thirty-two healthy adult Japanese volunteers were randomized into four cohorts. The volunteers were randomized 3:1 to receive a single dose of Compound A or placebo in a fasted state (see FIG. 4). The safety, tolerability and PK plasma profiles of Compound A were assessed after each dose. Full plasma PK profiles were determined up to 28 days after each single dose of Compound A. Urinary elimination was assessed in Cohort C (see FIG. 4) for 7 day.
# The PKs were dose-dependent in all four treatment cohorts. […] The inter-subject variability, expressed as % CV, was low to moderate and similar across dose levels.
smiles,measurement,setting,value
C[C@H](NS(=O)(=O)c1cc(C(=O)Nc2ccc(F)c(C#N)c2)n(C)c1)C(F)(F)F [Compound A],tolerability,[1],well tolerated
same,Apparent clearance,[2]; 25 mg,1 L/h
same,Mean dose normalized AUC 0-24 h,[2]; 25 mg,1109 ng·h/mL
same,Mean dose normalized Cmax at steady state,[2]; 25 mg,56.6 ng/mL
same,dose proportionality of pharmacokinetics,[2]; 25 mg and 75 mg arms,dose-proportional
same,Apparent clearance,[2]; 75 mg,0.9 L/h
same,Mean dose normalized AUC 0-24 h,[2]; 75 mg,1109 ng·h/mL
same,Mean dose normalized Cmax at steady state,[2]; 75 mg,53.2 ng/mL
same,HBV RNA Day 29 Mean Change from Baseline,[3]; 25 mg QD,−2.30 log10 cp/mL
same,HBV RNA Day 29 Not detected (number of patients),[3]; 25 mg QD,3
same,HBV RNA Day 29 Mean Change from Baseline,[3]; 75 mg QD,−1.85 log10 cp/mL
same,HBV RNA Day 29 Not detected (number of patients),[3]; 75 mg QD,6
same,Deaths,[4]; 25 mg single dose (n = 6),0
same,Grade 2 AEs: Bilirobin increased,[4]; 25 mg single dose (n = 6),0
same,Grade 2 AEs: Cholesterol increased,[4]; 25 mg single dose (n = 6),0
same,Grade 2 AEs: Fibrinogen decreased,[4]; 25 mg single dose (n = 6),0
same,Grade 2 AEs: Leukocytes decreased,[4]; 25 mg single dose (n = 6),0
same,Grade 2 AEs: Triglycerides increased,[4]; 25 mg single dose (n = 6),1
same,SAEs,[4]; 25 mg single dose (n = 6),0
same,Treatment-emergent AEs Related to Compound A,[4]; 25 mg single dose (n = 6),0
same,Volunteers with ≥0.1 AE (treatment-emergent AEs),[4]; 25 mg single dose (n = 6),0
same,Deaths,[4]; 150 mg single dose (n = 6),0
same,Grade 2 AEs: Bilirobin increased,[4]; 150 mg single dose (n = 6),0
same,Grade 2 AEs: Cholesterol increased,[4]; 150 mg single dose (n = 6),0
same,Grade 2 AEs: Fibrinogen decreased,[4]; 150 mg single dose (n = 6),0
same,Grade 2 AEs: Leukocytes decreased,[4]; 150 mg single dose (n = 6),0
same,Grade 2 AEs: Triglycerides increased,[4]; 150 mg single dose (n = 6),0
same,SAEs,[4]; 150 mg single dose (n = 6),0
same,Treatment-emergent AEs Related to Compound A,[4]; 150 mg single dose (n = 6),0
same,Volunteers with ≥0.1 AE (treatment-emergent AEs),[4]; 150 mg single dose (n = 6),2
same,Deaths,[4]; 300 mg single dose (n = 6),0
same,Grade 2 AEs: Bilirobin increased,[4]; 300 mg single dose (n = 6),0
same,Grade 2 AEs: Cholesterol increased,[4]; 300 mg single dose (n = 6),0
same,Grade 2 AEs: Fibrinogen decreased,[4]; 300 mg single dose (n = 6),0
same,Grade 2 AEs: Leukocytes decreased,[4]; 300 mg single dose (n = 6),0
same,Grade 2 AEs: Triglycerides increased,[4]; 300 mg single dose (n = 6),1
same,SAEs,[4]; 300 mg single dose (n = 6),0
same,Treatment-emergent AEs Related to Compound A,[4]; 300 mg single dose (n = 6),0
same,Volunteers with ≥0.1 AE (treatment-emergent AEs),[4]; 300 mg single dose (n = 6),0
same,Deaths,[4]; 500 mg single dose (n = 6),0
same,Grade 2 AEs: Bilirobin increased,[4]; 500 mg single dose (n = 6),0
same,Grade 2 AEs: Cholesterol increased,[4]; 500 mg single dose (n = 6),0
same,Grade 2 AEs: Fibrinogen decreased,[4]; 500 mg single dose (n = 6),0
same,Grade 2 AEs: Leukocytes decreased,[4]; 500 mg single dose (n = 6),0
same,Grade 2 AEs: Triglycerides increased,[4]; 500 mg single dose (n = 6),0
same,SAEs,[4]; 500 mg single dose (n = 6),0
same,Treatment-emergent AEs Related to Compound A,[4]; 500 mg single dose (n = 6),0
same,Volunteers with ≥0.1 AE (treatment-emergent AEs),[4]; 500 mg single dose (n = 6),2
same,Deaths,[4]; Total (n = 32),0
same,Grade 2 AEs: Bilirobin increased,[4]; Total (n = 32),0
same,Grade 2 AEs: Cholesterol increased,[4]; Total (n = 32),0
same,Grade 2 AEs: Fibrinogen decreased,[4]; Total (n = 32),0
same,Grade 2 AEs: Leukocytes decreased,[4]; Total (n = 32),0
same,Grade 2 AEs: Triglycerides increased,[4]; Total (n = 32),2
same,SAEs,[4]; Total (n = 32),0
same,Treatment-emergent AEs Related to Compound A,[4]; Total (n = 32),0
same,Volunteers with ≥0.1 AE (treatment-emergent AEs),[4]; Total (n = 32),4
same,Grade 3 or 4 laboratory abnormalities,"[4]; single dose 25-500 mg, fasted",No Grade 3 or 4 abnormalities were reported
same,SAEs and premature discontinuation for an AE,"[4]; single dose 25-500 mg, fasted",No volunteers experienced an SAE or prematurely discontinued the study for an AE
same,severity of treatment emergent adverse events (TEAEs),"[4]; single dose 25-500 mg, fasted",All TEAEs were mild
same,tolerability,"[4]; single dose 25-500 mg, fasted",well tolerated
same,Mean CL/F (SD),[5]; 25 mg single dose,1.03 (0.33) L/h
same,Mean CL/F (SD),[5]; 160 mg single dose,0.929 (0.24) L/h
same,Mean CL/F (SD),[5]; 300 mg single dose,0.852 (0.17) L/h
same,Mean CL/F (SD),[5]; 500 mg single dose,0.919 (0.23) L/h
same,dose dependence of PKs,[5]; all four treatment cohorts,dose-dependent
same,Cmax,[5]; 25 mg single dose,375 ng/mL
same,Vd/F,[5]; 25 mg single dose,132 L
same,half-life,[5]; 25 mg single dose,106 h
same,Tmax,[5]; 25 mg single dose,1.75 h
same,Cmax,[5]; 160 mg single dose,296 ng/mL
same,Vd/F,[5]; 160 mg single dose,126 L
same,half-life,[5]; 160 mg single dose,100 h
same,Tmax,[5]; 160 mg single dose,3 h
same,Cmax,[5]; 300 mg single dose,308 ng/mL
same,Vd/F,[5]; 300 mg single dose,1140 L
same,half-life,[5]; 300 mg single dose,116 h
same,Tmax,[5]; 300 mg single dose,3 h
same,Cmax,[5]; 500 mg single dose,328 ng/mL
same,Vd/F,[5]; 500 mg single dose,119 L
same,half-life,[5]; 500 mg single dose,95.6 h
same,Tmax,[5]; 500 mg single dose,1.75 h
same,administered dose excreted via the kidneys,"[5]; single dose 300 mg, Cohort C",18%
same,unchanged drug excreted in urine,"[5]; single dose 300 mg, Cohort C, 7 day",53.9 mg
